Results reported in publication PMC10901950, “Neuroprotective and Anti-inflammatory Effects of Rubiscolin-6 Analogs with Proline Surrogates in Position 2” (Neurochemical Research, 2023).
Ends that are not written are not given here.

Test system: SH-SY5Y cells
Assay: Cytotoxicity on SH-SY5Y cells (MTT)
Type: cell-based, human
Conditions: 10 µM, 24 h
Protocol: The neuroprotective experiments were performed in an in vitro model of a human neuroblastoma cell line (SH-SY5Y) obtained from the German Collection of Microorganisms and Cell Cultures GmbH (DSMZ) Bank (ACC 209). Cells were cultured in Dulbecco’s Modified Eagle’s Medium: Nutrient Mixture F12 (DMEM:F12) supplemented with 1% antibiotic/antimycotic (Amphotericin B, Penicillin and Streptomycin) (Biowest, Nuaillé, France) and 10% (v/v) Fetal Bovine Serum (FBS) (Biowest, Riverside, MO, USA). The anti-inflammatory experiments were performed in an in vitro model of mouse macrophage-like RAW 264.7 cells, purchased from American Type Culture Collection (ATCC, Manassas, VA, USA). Cells were maintained in DMEM medium (Gibco™, Grand Island, NY) and supplemented with 10% bovine calf serum (BCS) (Gibco™, Grand Island, NY) and 1% penicillin–streptomycin (Sigma-Aldrich, St. Louis, MO, USA). Cell cultures were kept at 37 °C in 5% CO2/humidified air.
Cells were incubated with peptides (0.1–10 µM) for 24 h to assess their cytotoxic activity. […] The resulting absorbance was read in a microplate reader (Biotek, Epoch/2 microplate reader, Winooski, VT, USA) at 570 nm.
Cell metabolic activity (cytotoxicity) was calculated as the percentage of the value obtained for cells incubated with compounds compared to control cells treated with the medium.

YPLDLF-NH2 [analog 6, Tyr-Pro-Leu-Asp-Leu-Phe-NH2]
SH-SY5Y cell viability (cytotoxicity): significantly decreased
